In publication PMC8060642, “Cloning, Expression, Characterization, and Antioxidant Protection of Glutaredoxin3 From Psychrophilic Bacterium Psychrobacter sp. ANT206” (Frontiers in Microbiology, 2021):

test system: T1, Ps-Grx3; assay: GR-coupled NADPH oxidation at […] nm, Lineweaver-Burk; assay type: biochemical, Psychrobacter sp. ANT206; conditions: 100 mM Tris-HCl pH 8.0, 25 °C; 1.0 mM GSH, 0.2 mM NADPH, 0.6 μg/mL GR; substrate 0.5-2.0 mM
T1 construct: full length, 87 residues (264 bp ORF), class I dithiol Grx with CPYC motif

Km [µM]	Compound
790	N[C@@H](CSS(=O)(=O)O)C(=O)O [S-sulfocysteine]
650	O=C1O[C@H]([C@@H](O)CO)C(=O)C1=O [DHA, dehydroascorbate]
520	N[C@@H](CSSC[C@H](N)C(=O)O)C(=O)O [L-cystine]

Compound	Km [µM]
OCCSSCCO [HED, 2-Hydroxyethyl disulfide]	690
